The values that follow come from patent publication US11957684B2, “Treatment of heavy menstrual bleeding associated with uterine fibroids” (Sumitomo Pharma Switzerland GmbH, priority 2016, dated 2024).

In general, half-life refers to the time in which the quantity being followed falls by half.

Data set [1] can be described thus: FIG. 167. From the text: Table printed on a drawing sheet, FIG. 167
First reader's note: Units stand in the cells; each column is one drug and the rows are its properties.

A short description of data set [2]: FIG. 75. The source says:
Table printed on a drawing sheet, FIG. 75
First reader's note: Each body row is one statistic (N, Mean, SD, quartiles, range) of the plasma concentration for one dose group, so N rows are subject counts and SD rows are errors; the dose group name is printed only on the N row and is repeated here for its group.

The nature of data set [3]: FIG. 73.
Source text: First reader's note: Each row is one summary statistic (N, mean, SD, quartiles, range) of the plasma concentration for one dose group; the N rows are subject counts, not ng/mL, and the columns are visit/sampling times.
For data set [4] the following is noted: literature (Struthers et al. 2009); cited from earlier work.

Consider `CONC(=O)Nc1ccc(-c2sc3c(c2CN(C)C)c(=O)n(-c2ccc(OC)nn2)c(=O)n3Cc2c(F)cccc2F)cc1` [Relugolix^1], for which the “Observed Half-life” value in data set [1] was in the range of 37 to 42 h.
For the molecule `CONC(=O)Nc1ccc(-c2sc3c(c2CN(C)C)c(=O)n(-c2ccc(OC)nn2)c(=O)n3Cc2c(F)cccc2F)cc1` [Compound 1 40 mg], in data set [2], the “Visit | Week 8: Predose” value is listed as 3.580 ng/mL and the “Visit | Week 12” value was determined as 1.520 ng/mL. In addition, in data set [3], the “Visit | Week 0: 0.5-[…]” value came to 7.424 ng/mL, the “Visit | Week 0: 2-5hr” value came to 7.680 ng/mL, the “Visit | Week 2: 0.5-[…]” value was 9.210 ng/mL and the “Visit | Week 2: 2-5hr” value turned out to be 7.550 ng/mL. Besides, in data set [3], the “Visit | Week 2: Predose” value came to 2.383 ng/mL, the “Visit | Week 4: 0.5-[…]” value was 11.61 ng/mL, the “Visit | Week 4: 2-5hr” value was determined as 8.479 ng/mL and the “Visit | Week 4: Predose” value came out at 2.315 ng/mL. In data set [3], the “Visit | Week 8: 0.5-[…]” value was 10.29 ng/mL, the “Visit | Week 8: 2-5hr” value is on record as 11.20 ng/mL, the “Visit | Week 8: Predose” value is recorded as 2.233 ng/mL and the “Visit | Week 12” value came out at 1.987 ng/mL. In data set [3], the “Visit | Week 16: Predose” value is given as 1.995 ng/mL, the “Visit | Week 20: Predose” value stood at 2.240 ng/mL and the “Visit | Week 24” value came out at 1.908 ng/mL.
Turning to `CONC(=O)Nc1ccc(-c2sc3c(c2CN(C)C)c(=O)n(-c2ccc(OC)nn2)c(=O)n3Cc2c(F)cccc2F)cc1` [Compound 1 10 mg], in data set [2], the “Visit | Week 2: 0.5-[…]” value was found to be 0.9860 ng/mL, the “Visit | Week 2: 2-5hr” value turned out to be 0.8280 ng/mL, the “Visit | Week 2: Predose” value was determined as 0.0898 ng/mL and the “Visit | Week 4: 0.5-[…]” value was found to be 0.9140 ng/mL. In data set [2], the “Visit | Week 4: 2-5hr” value amounted to 0.3720 ng/mL, the “Visit | Week 4: Predose” value amounted to 0.1880 ng/mL, the “Visit | Week 8: 0.5-[…]” value is given as 2.192 ng/mL and the “Visit | Week 8: 2-5hr” value is reported as 1.320 ng/mL. In data set [2], the “Visit | Week 12” value worked out at 0.8620 ng/mL and the “Visit | Week 16: Predose” value stood at 0.1500 ng/mL. For the same molecule, in data set [3], the “Visit | Week 0: 0.5-[…]” value came out at 0.5290 ng/mL, the “Visit | Week 0: 2-5hr” value stood at 0.5641 ng/mL, the “Visit | Week 2: 2-5hr” value worked out at 0.8025 ng/mL and the “Visit | Week 2: Predose” value was 0.3100 ng/mL. In addition, in data set [3], the “Visit | Week 4: 2-5hr” value was 0.9672 ng/mL, the “Visit | Week 4: Predose” value is listed as 0.2670 ng/mL, the “Visit | Week 8: 0.5-[…]” value is given as 1.324 ng/mL and the “Visit | Week 8: 2-5hr” value is listed as 0.8301 ng/mL. In data set [3], the “Visit | Week 8: Predose” value was 0.3406 ng/mL, the “Visit | Week 12” value was determined as 0.2783 ng/mL, the “Visit | Week 16: Predose” value is reported as 0.3251 ng/mL and the “Visit | Week 20: Predose” value is 0.3138 ng/mL. The “Visit | Week 24” value in data set [3] is 0.2811 ng/mL.
In the case of `COc1cccc(-c2c(C)n(Cc3c(F)cccc3C(F)(F)F)c(=O)n(C[C@H](NCCCC(=O)O)c3ccccc3)c2=O)c1F` [Elagolix^2], the “Observed Half-life” value in data set [1] lay within 2 to 6 h.
With `CONC(=O)Nc1ccc(-c2sc3c(c2CN(C)C)c(=O)n(-c2ccc(OC)nn2)c(=O)n3Cc2c(F)cccc2F)cc1` [Compound 1 20 mg], in data set [2], the “Visit | Week 0: 0.5-[…]” value is recorded as 7.570 ng/mL, the “Visit | Week 2: Predose” value is given as 0.8990 ng/mL, the “Visit | Week 4: Predose” value turned out to be 0.3880 ng/mL and the “Visit | Week 8: Predose” value came out at 0.3380 ng/mL. Further, in data set [2], the “Visit | Week 12” value is given as 0.8320 ng/mL and the “Visit | Week 24” value stood at 0.7470 ng/mL. In data set [3], the “Visit | Week 0: 0.5-[…]” value turned out to be 2.784 ng/mL, the “Visit | Week 0: 2-5hr” value was 2.154 ng/mL, the “Visit | Week 2: 0.5-[…]” value is listed as 2.912 ng/mL and the “Visit | Week 2: 2-5hr” value came out at 2.981 ng/mL. For the same molecule, in data set [3], the “Visit | Week 2: Predose” value was found to be 0.8002 ng/mL, the “Visit | Week 4: 0.5-[…]” value amounted to 3.515 ng/mL, the “Visit | Week 4: 2-5hr” value is given as 3.567 ng/mL and the “Visit | Week 4: Predose” value worked out at 0.6640 ng/mL. In data set [3], the “Visit | Week 8: 0.5-[…]” value turned out to be 3.437 ng/mL, the “Visit | Week 8: 2-5hr” value is listed as 2.643 ng/mL, the “Visit | Week 8: Predose” value stood at 0.8032 ng/mL and the “Visit | Week 12” value is on record as 0.6904 ng/mL. Moreover, in data set [3], the “Visit | Week 16: Predose” value is given as 0.6280 ng/mL, the “Visit | Week 20: Predose” value is on record as 0.7132 ng/mL and the “Visit | Week 24” value stood at 0.6712 ng/mL.
Take `COc1cccc(-c2c(C)n(Cc3c(F)cccc3C(F)(F)F)c(=O)n(C[C@H](NCCCC(=O)O)c3ccccc3)c2=O)c1F` [elagolix]: the half-life in data set [4] was 2.4 to 6.3 h.
